Data set [1] is described as follows: Acute toxicity in Swiss albino mouse assessed as convulsion at 175 mg/kg, po administered for 14 days. It is filed as organism-based. As to conditions: in vivo, 336 h, time 14 day.
Data set [2] concerns the target Cholinesterase (Equus caballus) (UniProt P81908). In words: Reversible binding affinity to equine serum BChE using acetylthiocholine iodide as substrate assessed as binding constant preincubated for 40 mins by DTNB reagent based Ellman's method. On the technique in general: Ellman's reagent forms a yellow product with free thiols.
In data set [3] the test system is Mus musculus. Put plainly: Neuroprotective activity against scopolamine-induced Swiss albino mouse model assessed as increase in NR4A2 mRNA level at 0.3 to 0.5 mg/kg, po measured after 6 days by RT-PCR analysis. It counts as functional, organism-based. Conditions: dose 0.3-0.5 mg/kg, time 6.0 day.
The subject of data set [4] is Mus musculus. In words: Antialzheimer activity in scopolamine-induced Swiss albino mouse model assessed as reduction in AChE level at 0.3 to 0.5 mg/kg, po preincubated with compound for 30 mins followed by scopolamine induction and measured after 30 mins. It counts as functional, organism-based. As to conditions: dose 0.3-0.5 mg/kg, time 1.0 hrs.
The test system of data set [5] is Mus musculus. In words: Antioxidant activity against scopolamine-induced Swiss albino mouse model assessed as increase in catalase level in brain at 0.3 to 0.5 mg/kg, po by absorbance based analysis. It counts as functional, organism-based. As to conditions: dose 0.3-0.5 mg/kg.
Data set [6] deals with PC-12. Put plainly: Induction of apoptosis in rat PC-12 cells assessed as viable cells at 20 uM incubated for 24 hrs by Annexin V/PI staining based flow cytometry analysis (reference value: 82.8%). It counts as functional. Conditions: read-out: Activity. (In flow cytometry, cells or beads pass a laser one at a time.)
The target in another data set is Acetylcholinesterase (Homo sapiens, UniProt P22303). In words: Reversible binding affinity to human AChE using acetylthiocholine iodide as substrate assessed as binding constant preincubated for 40 mins by DTNB reagent based Ellman's method.
Chain of Acetylcholinesterase (P22303 whole entry): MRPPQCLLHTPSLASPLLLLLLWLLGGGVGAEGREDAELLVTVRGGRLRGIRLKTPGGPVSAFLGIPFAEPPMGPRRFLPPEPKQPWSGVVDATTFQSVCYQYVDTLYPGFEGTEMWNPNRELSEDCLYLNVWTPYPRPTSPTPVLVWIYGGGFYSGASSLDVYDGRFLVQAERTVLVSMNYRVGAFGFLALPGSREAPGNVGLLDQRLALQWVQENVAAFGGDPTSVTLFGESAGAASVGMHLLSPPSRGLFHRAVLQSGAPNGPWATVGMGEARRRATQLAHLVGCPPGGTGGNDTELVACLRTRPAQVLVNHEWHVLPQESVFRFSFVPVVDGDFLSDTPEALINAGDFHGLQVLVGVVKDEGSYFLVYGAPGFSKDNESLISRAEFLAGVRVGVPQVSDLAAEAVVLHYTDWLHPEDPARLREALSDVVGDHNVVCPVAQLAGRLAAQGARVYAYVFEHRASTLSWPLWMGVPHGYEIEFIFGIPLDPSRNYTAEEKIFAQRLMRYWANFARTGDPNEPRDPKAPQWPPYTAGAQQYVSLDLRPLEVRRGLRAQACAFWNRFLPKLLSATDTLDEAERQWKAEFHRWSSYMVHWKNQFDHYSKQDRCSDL
Data set [7] concerns PC-12. Put plainly: Neuroprotective activity against H2O2-induced oxidative stress in rat PC-12 cells assessed as cell viability at 1 to 20 uM preincubated with compound for 24 hrs and followed by H2O2 induction and measured after 24 hrs by MTT assay. It counts as functional, cell-based. Conditions: dose 1-20 µM, time 48.0 hrs. Background: Tetrazolium dyes change colour on reduction, which living cells bring about.

The nature of data set [8]: Acute toxicity in Swiss albino mouse assessed as animal survival at 175 mg/kg, po administered for 14 days. As to conditions: in vivo, 336 h, time 14 day. It is filed as organism-based.
Data set [9] concerns Mus musculus. Put plainly: Antioxidant activity against scopolamine-induced Swiss albino mouse model assessed as increase in MDA level at 0.3 to 0.5 mg/kg, po by absorbance based analysis. Conditions: dose 0.3-0.5 mg/kg. It is filed as functional, organism-based.
Data set [10] has as its system Drosophila melanogaster. Put plainly: Anti-alzheimer activity in ey-GAL4 driven UAS-amyloid beta (1 to 42) induced Drosophila melanogaster Oregon R-positive assessed as mild eye phenotype at 40 uM by Stereo zoom microscopic imaging analysis relative to control. It is filed as functional.
Data set [11] concerns Drosophila melanogaster. Put plainly: Anti-alzheimer activity in ey-GAL4 driven UAS-amyloid beta (1 to 42) induced Drosophila melanogaster Oregon R-positive assessed as severe eye phenotype at 10 to 20 uM by Stereo zoom microscopic imaging analysis relative to control. It is filed as functional. Conditions: dose 10-20 µM.
Data set [12] can be described thus: Toxicity in Drosophila melanogaster Oregon R-positive assessed as reduction in eclosed flies at 40 uM measured for 15 days relative to control. As to conditions: 360 h, time 15 day. Also noted: scale not given: the % may be the effect or the level left.
Data set [13] deals with Drosophila melanogaster. In words: Anti-alzheimer activity in ey-GAL4 driven UAS-amyloid beta (1 to 42) induced Drosophila melanogaster Oregon R-positive assessed as mild eye phenotype at 10 uM by Stereo zoom microscopic imaging analysis relative to control. It counts as functional.
Data set [14] deals with PC-12. Put plainly: Induction of apoptosis in rat PC-12 cells assessed as viable cells at 5 uM incubated for 24 hrs by Annexin V/PI staining based flow cytometry analysis (reference value: 82.8%). It counts as functional. Conditions: read-out: Activity.
The subject of data set [15] is Drosophila melanogaster. Put plainly: Anti-alzheimer activity in ey-GAL4 driven UAS-amyloid beta (1 to 42) induced Drosophila melanogaster Oregon R-positive assessed as severe eye phenotype at 10 uM by Stereo zoom microscopic imaging analysis relative to control. It counts as functional.
Data set [16] concerns Drosophila melanogaster. In words: Anti-alzheimer activity in ey-GAL4 driven UAS-amyloid beta (1 to 42) induced Drosophila melanogaster Oregon R-positive assessed as mild eye phenotype at 10 to 20 uM by Stereo zoom microscopic imaging analysis relative to control. It counts as functional. Conditions: dose 10-20 µM.
Data set [17] is described as follows: Toxicity in Drosophila melanogaster Oregon R-positive assessed as reduction in eclosed flies at 20 uM measured for 15 days relative to control. Further details: scale not given: the % may be the effect or the level left. Conditions: 360 h, time 15 day.
Data set [18] is described as follows: Antioxidant activity assessed as DPPH radical scavenging activity at 200 uM incubated for 30 mins relative to control. It counts as functional.
The subject of data set [19] is Drosophila melanogaster. Put plainly: Anti-alzheimer activity in ey-GAL4 driven UAS-amyloid beta (1 to 42) induced Drosophila melanogaster Oregon R-positive assessed as rescued eye phenotype at 40 uM by Stereo zoom microscopic imaging analysis relative to control. It is filed as functional.
Data set [20] relates to Mus musculus. Put plainly: Antioxidant activity against scopolamine-induced Swiss albino mouse model assessed as increase in SOD level at 0.3 to 0.5 mg/kg, po by absorbance based analysis. It counts as functional, organism-based. Conditions: dose 0.3-0.5 mg/kg.
In data set [21] the test system is Drosophila melanogaster. In words: Anti-alzheimer activity in ey-GAL4 driven UAS-amyloid beta (1 to 42) induced Drosophila melanogaster Oregon R-positive assessed as severe eye phenotype at 100 uM by Stereo zoom microscopic imaging analysis relative to control. It is filed as functional.
The target in data set [22] is Amyloid-beta precursor protein (Homo sapiens) (UniProt P05067). Put plainly: Inhibition of amyloid beta (1 to 42) (unknown origin) self induced aggregation at 1.521 uM incubated for 72 hrs by transmission electron microscopic analysis.
Chain of Amyloid-beta precursor protein (Homo sapiens) (P05067 whole entry): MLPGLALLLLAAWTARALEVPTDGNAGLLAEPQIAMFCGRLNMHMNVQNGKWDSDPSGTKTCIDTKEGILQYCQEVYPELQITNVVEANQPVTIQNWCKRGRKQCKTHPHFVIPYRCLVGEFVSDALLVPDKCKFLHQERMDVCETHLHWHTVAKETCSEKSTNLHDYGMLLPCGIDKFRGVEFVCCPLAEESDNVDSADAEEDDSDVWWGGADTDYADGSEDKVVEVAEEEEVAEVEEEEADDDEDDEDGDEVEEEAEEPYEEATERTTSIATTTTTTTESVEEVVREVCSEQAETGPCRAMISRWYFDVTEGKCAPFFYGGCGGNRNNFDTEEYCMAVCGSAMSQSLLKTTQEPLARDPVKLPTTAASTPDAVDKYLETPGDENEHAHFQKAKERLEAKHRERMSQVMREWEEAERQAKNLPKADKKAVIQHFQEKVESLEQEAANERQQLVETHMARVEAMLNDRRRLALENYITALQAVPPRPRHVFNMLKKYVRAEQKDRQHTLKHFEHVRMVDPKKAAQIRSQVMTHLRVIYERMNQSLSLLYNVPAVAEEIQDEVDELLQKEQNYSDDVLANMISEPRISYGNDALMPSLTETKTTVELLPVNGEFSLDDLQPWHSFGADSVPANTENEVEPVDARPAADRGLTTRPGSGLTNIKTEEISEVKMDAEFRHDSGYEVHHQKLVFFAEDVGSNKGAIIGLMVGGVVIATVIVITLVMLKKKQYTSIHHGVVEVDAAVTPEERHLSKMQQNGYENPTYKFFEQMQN
For data set [23], the target named is Cholinesterase (Equus caballus) (UniProt P81908). In words: Reversible binding affinity to equine serum BChE using acetylthiocholine iodide as substrate assessed as equilibrium binding constant preincubated for 40 mins by DTNB reagent based Ellman's method.
Chain of Cholinesterase (Equus caballus) (P81908 whole entry): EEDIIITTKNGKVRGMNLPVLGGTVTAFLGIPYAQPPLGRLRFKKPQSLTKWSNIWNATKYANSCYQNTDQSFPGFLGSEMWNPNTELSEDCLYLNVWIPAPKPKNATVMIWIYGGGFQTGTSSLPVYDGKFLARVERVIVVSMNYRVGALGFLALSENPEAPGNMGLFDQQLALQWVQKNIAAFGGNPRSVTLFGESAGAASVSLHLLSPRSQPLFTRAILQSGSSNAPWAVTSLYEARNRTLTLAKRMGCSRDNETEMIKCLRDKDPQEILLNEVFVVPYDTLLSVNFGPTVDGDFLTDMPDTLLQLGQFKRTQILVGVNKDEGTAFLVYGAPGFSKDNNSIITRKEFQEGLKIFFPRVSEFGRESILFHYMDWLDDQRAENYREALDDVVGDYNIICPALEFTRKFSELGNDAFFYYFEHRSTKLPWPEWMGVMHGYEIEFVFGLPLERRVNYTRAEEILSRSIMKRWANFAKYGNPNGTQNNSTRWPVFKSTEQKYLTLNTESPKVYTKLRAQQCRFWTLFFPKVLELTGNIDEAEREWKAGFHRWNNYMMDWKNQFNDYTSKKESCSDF

The text below walks through data of ChEMBL document CHEMBL6074689 (Eur J Med Chem, 2025).

Activity calls are given as the source filed them. The calls are words filed in the database; no cut-off is given here.

For `C[C@@H](c1cccc(OC(=O)NCCc2c[nH]c3ccc(Cl)cc23)c1)N(C)C`, the Activity entry in [1] is reported as “Non-toxic”; in [8], “Non-toxic”; in the data set with Drosophila melanogaster [10], 43%; in the data set on Drosophila melanogaster [11], 20%; in [12], 20%; with Drosophila melanogaster [13], 36%. The Activity amounted to 20% in the data set on Drosophila melanogaster [15]; 36% with Drosophila melanogaster [16]; 103% in data set [17]; 38.9% in data set [18]; 40% in the data set on Drosophila melanogaster [19]; 26% in the data set with Drosophila melanogaster [21]. In addition, the K in data set [2] came to 0.035 min⁻¹; at Acetylcholinesterase it was 0.041 min⁻¹. In addition, the outcome in the data set with Mus musculus [3], in the data set on Mus musculus [4], in the data set with Mus musculus [5], in the data set with PC-12 [7], in the data set on Mus musculus [9] and in the data set on Mus musculus [20] was Active. Also, the viability at 20 µM in the data set on PC-12 [6] was determined as 81.5%. Moreover, in the data set on PC-12 [14], the viability at 5 µM came to 81.1%. In addition, in data set [22], the inhibition entry was “Active”. Also, the Kb in data set [23] worked out at 0.13 nM.
